This assay has as its system C2C12 cells. The assay is described as follows: Evaluation of myogenesis of C2C12 cells by fusion index. The settings on record: differentiation condition 72 hours, DMSO as 1, average of three. It is filed as cell-based, mouse. As for the experimental part:
(1) C2C12 cells were grown to confluence under growth condition, and then in differentiation condition for 72 hours, in a culture medium added with DMSO, IBS008738 (exemplary compound 1) or exemplary compounds 2 to 44, at a concentration of 1 μM, 3 μM or 10 μM, respectively. Thereafter, the degree of myogenesis was evaluated by a fusion index (a value obtained by dividing the number of nuclei detected in multinucleated myosin heavy chain (MHC)-positive cells by the total number of the nuclei). Specifically, exemplary compounds were divided into five groups, and DMSO and IBS008738 were evaluated in each group as controls. The evaluation was conducted three times, and the average value and the standard deviation of the fusion index was relativized with the measured value of DMSO as 1.
C2C12 cells were passaged in a growth medium (DMEM containing 10% FBS) and differentiated in a differentiation medium (DMEM containing 2% horse serum (Invitrogen)).

Regarding `Cc1ccc(-n2cnc(N)c2C(=O)c2ccccc2)cc1` [exemplary compound 2], the “relative fusion index (FI)” value is recorded as 1.62 (Group 1, 1 μM); 2.26 (Group 1, 3 μM); 2.41 (Group 1, 10 μM).
Taken in the same sequence, the figures for `Cc1ccc(-n2cnc(/N=C/N3CCCCC3)c2C(=O)c2ccccc2)cc1` [exemplary compound 4] were 1.02, 1.54 and 1.51.
As to `CC(=O)Nc1ncn(-c2ccc(C)cc2)c1C(=O)c1ccccc1` [exemplary compound 5], the “relative fusion index (FI)” value (Group 1, 1 μM) was determined as 0.85; the “relative fusion index (FI)” value (Group 1, 3 μM) amounted to 1.50; the “relative fusion index (FI)” value (Group 1, 10 μM) was 1.57.
Turning to `Cc1ccc(-n2cnc(/N=C/c3ccccc3)c2C(=O)c2ccccc2)cc1` [exemplary compound 6], the “relative fusion index (FI)” value (Group 1, 1 μM) came out at 0.96; the “relative fusion index (FI)” value (Group 1, 3 μM) came out at 1.78; the “relative fusion index (FI)” value (Group 1, 10 μM) is listed as 1.42.
Taken in the same sequence, the figures for `CCOC(=O)c1c(N)ncn1-c1ccc(C)cc1` [exemplary compound 7] were 1.09, 1.55 and 1.44.
Regarding `CCOC(=O)c1c(/N=C/N(C)C)ncn1-c1ccc(C)cc1` [exemplary compound 8], the “relative fusion index (FI)” value worked out at 0.93 (Group 1, 1 μM); 1.53 (Group 1, 3 μM); 1.05 (Group 1, 10 μM).
On the same counts, the results for `CCOC(=O)c1c(/N=C/N2CCOCC2)ncn1-c1ccc(C)cc1` [exemplary compound 10] are 0.80, 1.31 and 0.85.
As for `CNc1ncn(-c2ccc(C)cc2)c1C(=O)c1ccccc1` [exemplary compound 12], the “relative fusion index (FI)” value is, setting by setting: (Group 2, 1 μM) 1.24; (Group 2, 3 μM) 1.43; (Group 2, 10 μM) 1.36.
As for `COc1ccc(-n2cnc(N)c2C(=O)c2ccccc2)cc1` [exemplary compound 13], the “relative fusion index (FI)” value is, setting by setting: (Group 2, 1 μM) 1.22; (Group 2, 3 μM) 1.32; (Group 2, 10 μM) 1.53.
On the same counts, the results for `COc1ccc(-n2cnc(/N=C/N(C)C)c2C(=O)c2ccccc2)cc1` [exemplary compound 14] are 1.18, 1.63 and 1.72.
Turning to `COc1ccc(-n2cnc(/N=C/N3CCOCC3)c2C(=O)c2ccccc2)cc1` [exemplary compound 15], the “relative fusion index (FI)” value is 1.20 (Group 2, 1 μM); 1.58 (Group 2, 3 μM); 1.58 (Group 2, 10 μM).
For the compound `Cc1ccc(-n2c(C)nc(N)c2C(=O)c2ccccc2)cc1` [exemplary compound 16], the “relative fusion index (FI)” value by setting is: (Group 2, 1 μM) 1.06; (Group 2, 3 μM) 1.18; (Group 2, 10 μM) 1.60.
`Nc1ncn(-c2ccc(Br)cc2)c1C(=O)c1ccccc1` [exemplary compound 17]: the “relative fusion index (FI)” value is listed as 1.51 (Group 2, 1 μM); 2.14 (Group 2, 3 μM); 2.07 (Group 2, 10 μM).
Take `Cc1ccc(-n2cnc(N(C)C)c2C(=O)c2ccccc2)cc1` [exemplary compound 18]: the “relative fusion index (FI)” value worked out at 1.34 (Group 3, 1 μM); 1.52 (Group 3, 3 μM); 1.85 (Group 3, 10 μM).
For the compound `CN(C)/C=N/c1ncn(-c2ccc(Br)cc2)c1C(=O)c1ccccc1` [exemplary compound 19], the “relative fusion index (FI)” value by setting is: (Group 3, 1 μM) 1.25; (Group 3, 3 μM) 1.57; (Group 3, 10 μM) 1.63.
For `O=C(c1ccccc1)c1c(/N=C/N2CCOCC2)ncn1-c1ccc(Br)cc1` [exemplary compound 20], the “relative fusion index (FI)” value by setting is: (Group 3, 1 μM) 1.26; (Group 3, 3 μM) 1.41; (Group 3, 10 μM) 1.60.
In the case of `CC(=O)c1c(/N=C/N(C)C)ncn1-c1ccc(C)cc1` [exemplary compound 25], the “relative fusion index (FI)” value (Group 3, 1 μM) is 0.96; the “relative fusion index (FI)” value (Group 3, 3 μM) turned out to be 1.22; the “relative fusion index (FI)” value (Group 3, 10 μM) was determined as 1.44.
`Cc1ccc(-n2cnc(N)c2C#N)cc1` [exemplary compound 26]: the “relative fusion index (FI)” value is 1.01 (Group 3, 1 μM); 1.09 (Group 3, 3 μM); 1.44 (Group 3, 10 μM).
Regarding `CC(C)(C)OC(=O)NCCc1ccc(-n2cnc(N)c2C(=O)c2ccccc2)cc1` [exemplary compound 27], the “relative fusion index (FI)” value amounted to 0.97 (Group 4, 1 μM); 1.67 (Group 4, 3 μM); 1.98 (Group 4, 10 μM).
As for `NCCc1ccc(-n2cnc(N)c2C(=O)c2ccccc2)cc1` [exemplary compound 28], the “relative fusion index (FI)” value (Group 4, 1 μM) was found to be 1.21; the “relative fusion index (FI)” value (Group 4, 3 μM) was 1.42; the “relative fusion index (FI)” value (Group 4, 10 μM) was 1.64.
In the case of `N#CCc1ccc(-n2cnc(N)c2C(=O)c2ccccc2)cc1` [exemplary compound 29], the “relative fusion index (FI)” value was 1.25 (Group 4, 1 μM); 1.49 (Group 4, 3 μM); 1.61 (Group 4, 10 μM).
On to `COc1ccc(C(=O)c2c(N)ncn2-c2ccc(C)cc2)cc1` [exemplary compound 30], for which the “relative fusion index (FI)” value (Group 4, 1 μM) is 1.27; the “relative fusion index (FI)” value (Group 4, 3 μM) was 1.52; the “relative fusion index (FI)” value (Group 4, 10 μM) came to 1.54.
On the same counts, the results for `Cc1ccc(-n2cnc(N)c2C(=O)c2cccc(Cl)c2)cc1` [exemplary compound 31] are 1.12, 1.15 and 1.40.
As for `Cc1ccc(-n2cnc(N)c2C(=O)c2ccc(Cl)cc2)cc1` [exemplary compound 32], the “relative fusion index (FI)” value is, setting by setting: (Group 4, 1 μM) 1.16; (Group 4, 3 μM) 1.47; (Group 4, 10 μM) 1.60.
As for `Cc1ccc(-n2cnc(N)c2C(=O)c2ccc([N+](=O)[O-])cc2)cc1` [exemplary compound 33], the “relative fusion index (FI)” value (Group 4, 1 μM) worked out at 0.91; the “relative fusion index (FI)” value (Group 4, 3 μM) was determined as 1.20; the “relative fusion index (FI)” value (Group 4, 10 μM) was 1.23.
Taken in the same sequence, the figures for `Cc1ccc(-n2cnc(N)c2C(=O)c2ccc(F)cc2)cc1` [exemplary compound 34] were 1.38, 1.33 and 1.49.
With `Nc1ncn(-c2ccc(Cl)cc2Cl)c1C(=O)c1ccccc1` [exemplary compound 35], the “relative fusion index (FI)” value by setting is: (Group 4, 1 μM) 1.27; (Group 4, 3 μM) 1.60; (Group 4, 10 μM) 1.55.
Turning to `Cc1ccc(-n2cnc(N)c2C(=O)c2ccc(Br)cc2)cc1` [exemplary compound 36], the “relative fusion index (FI)” value (Group 4, 1 μM) is given as 1.12; the “relative fusion index (FI)” value (Group 4, 3 μM) was found to be 1.57; the “relative fusion index (FI)” value (Group 4, 10 μM) is recorded as 1.59.
With `Cc1ccc(-n2cnc(N)c2C(=O)C23CC4CC(CC(C4)C2)C3)cc1` [exemplary compound 37], the “relative fusion index (FI)” value stood at 1.39 (Group 4, 1 μM); 1.47 (Group 4, 3 μM); 1.77 (Group 4, 10 μM).
Regarding `Nc1ncn(-c2ccccn2)c1C(=O)c1ccccc1` [exemplary compound 38], the “relative fusion index (FI)” value by setting is: (Group 5, 1 μM) 1.08; (Group 5, 3 μM) 1.12; (Group 5, 10 μM) 1.15.
Consider `N#Cc1ccc(-n2cnc(N)c2C(=O)c2ccccc2)cc1` [exemplary compound 39], for which the “relative fusion index (FI)” value came to 1.04 (Group 5, 1 μM); 1.10 (Group 5, 3 μM); 1.09 (Group 5, 10 μM).
Take `CCOC(=O)c1c(N)ncn1-c1ccccc1C` [exemplary compound 40]: the “relative fusion index (FI)” value by setting is: (Group 5, 1 μM) 1.12; (Group 5, 3 μM) 1.15; (Group 5, 10 μM) 1.10.
Turning to `CC(=O)c1c(N)ncn1-c1ccccc1C` [exemplary compound 41], the “relative fusion index (FI)” value runs as follows: (Group 5, 1 μM) 1.14; (Group 5, 3 μM) 1.06; (Group 5, 10 μM) 1.11.
As to `Cc1ccccc1-n1cnc(N)c1C(=O)C12CC3CC(CC(C3)C1)C2` [exemplary compound 42], the “relative fusion index (FI)” value (Group 5, 1 μM) was 1.08; the “relative fusion index (FI)” value (Group 5, 3 μM) was found to be 1.03; the “relative fusion index (FI)” value (Group 5, 10 μM) is given as 1.10.
As for `Cc1ccc(-n2cnc(N)c2C(=O)c2ccccc2)c(C)c1` [exemplary compound 43], the “relative fusion index (FI)” value was found to be 1.07 (Group 5, 1 μM); 1.11 (Group 5, 3 μM); 1.12 (Group 5, 10 μM).

The record behind these values is patent US10653672B2, “Myogenesis promotor, muscle atrophy inhibitor, medical composition and TAZ activator” (National University Corporation Tokyo Medical and Dental …, priority 2014, dated 2020).
